Reference: EP0066987B1, “N-(aryloxyalkyl)-N'-(amino-alkyl) ureas” (A.H. ROBINS COMPANY, INCORPORATED, priority 1981, dated 1982)

Experiment: Side effects compared with quinidine and lidocaine
Details: as compared to quinidine and lidocaine

In the case of `CC(C)N(CCOc1cc(Cl)cc(Cl)c1)C(=O)NCCN(C)C.O=C(O)/C=C\C(=O)O` [Example 3, N-[2-(3,5-Dichlorophenoxy)ethyl]-N'-[2-(dimethylamino)ethyl]-N-(1-methylethyl)urea, maleate [1:1]], the CNS side effects is reported as “minimal CNS side effects”.
